{"source": "paper PMC9292215", "about": "(Clinical Pharmacology and Therapeutics, 2021)", "assay": "Plasma pharmacokinetics of BIA 10-2474 and metabolites", "format": "in vivo, human", "details": "for AUC(0-t) / Cmax / Tmax / clearance / half-life / AUC(0-inf) / concentration at 10 day / AUC: human, plasma, oral; for AUC(0-t): AUC0–t; for clearance: CL; for AUC: AUC0–τ", "key": {"[1]": {"details": "both, 100 mg, single dose 100 mg"}, "[2]": {"details": "2.5 mg, 2.5 mg once daily, Day 1"}, "[3]": {"details": "2.5 mg, 2.5 mg once daily, Day 10"}, "[4]": {"details": "10 mg, 10 mg once daily, Day 10"}, "[5]": {"details": "20 mg, 20 mg once daily, Day 10"}}, "data": [{"smiles": "CN(C(=O)n1cnc(-c2ccc[n+]([O-])c2)c1)C1CCCCC1", "note": "[BIA 10-2474, 3-(1-(cyclohexyl(methyl)carbamoyl)-1H-imidazol-4-yl)pyridine 1-oxide]", "values": [{"measurement": "AUC(0-t)", "setting": "both, 5 mg, single dose 5 mg", "value": 693, "unit": "ng·h/mL"}, {"measurement": "Cmax", "setting": "both, 5 mg, single dose 5 mg", "value": 85.4, "unit": "ng/mL"}, {"measurement": "Tmax", "setting": "both, 5 mg, single dose 5 mg", "value": 2, "unit": "h"}, {"measurement": "clearance", "setting": "both, 40 mg, single dose 40 mg", "value": 116, "unit": "mL/min"}, {"measurement": "half-life", "setting": "both, 40 mg, t1/2, single dose 40 mg", "value": 7.84, "unit": "h"}, {"measurement": "Tmax", "setting": "both, 40 mg, single dose 40 mg", "value": 2, "unit": "h"}, {"measurement": "AUC(0-inf)", "setting": "both, 100 mg", "value": 23200, "unit": "ng·h/mL"}, {"measurement": "AUC(0-t)", "setting": "[1]", "value": 23000, "unit": "ng·h/mL"}, {"measurement": "clearance", "setting": "[1]", "value": 75.2, "unit": "mL/min"}, {"measurement": "Cmax", "setting": "[1]", "value": 1770, "unit": "ng/mL"}, {"measurement": "half-life", "setting": "both, 100 mg, t1/2, single dose 100 mg", "value": 9.13, "unit": "h"}, {"measurement": "Tmax", "setting": "[1]", "value": 2, "unit": "h"}, {"measurement": "half-life", "setting": "both, drug half-life in plasma", "value": "6 to 10", "unit": "h"}, {"measurement": "half-life", "setting": "both, mean terminal elimination half-life, Day 10", "value": "8 to 10", "unit": "h"}, {"measurement": "concentration at 10 day", "setting": "2.5 mg", "value": 6.24, "unit": "ng/mL"}, {"measurement": "AUC(0-t)", "setting": "[2]", "value": 384, "unit": "ng·h/mL"}, {"measurement": "AUC", "setting": "[2]", "value": 397, "unit": "ng·h/mL"}, {"measurement": "AUC", "setting": "[3]", "value": 526, "unit": "ng·h/mL"}, {"measurement": "clearance", "setting": "[2]", "value": 98.3, "unit": "mL/min"}, {"measurement": "clearance", "setting": "[3]", "value": 81.5, "unit": "mL/min"}, {"measurement": "Cmax", "setting": "[2]", "value": 46, "unit": "ng/mL"}, {"measurement": "Cmax", "setting": "[3]", "value": 52.6, "unit": "ng/mL"}, {"measurement": "half-life", "setting": "2.5 mg, t1/2, 2.5 mg once daily, Day 1", "value": 6.73, "unit": "h"}, {"measurement": "half-life", "setting": "2.5 mg, t1/2, 2.5 mg once daily, Day 10", "value": 8.04, "unit": "h"}, {"measurement": "Tmax", "setting": "[2]", "value": 2, "unit": "h"}, {"measurement": "Tmax", "setting": "[3]", "value": 2, "unit": "h"}, {"measurement": "AUC(0-inf)", "setting": "5 mg", "value": 752, "unit": "ng·h/mL"}, {"measurement": "concentration at 10 day", "setting": "5 mg", "value": 10.8, "unit": "ng/mL"}, {"measurement": "AUC(0-t)", "setting": "5 mg, 5 mg once daily, Day 1", "value": 695, "unit": "ng·h/mL"}, {"measurement": "AUC", "setting": "5 mg, 5 mg once daily, Day 1", "value": 708, "unit": "ng·h/mL"}, {"measurement": "AUC", "setting": "5 mg, 5 mg once daily, Day 10", "value": 909, "unit": "ng·h/mL"}, {"measurement": "clearance", "setting": "5 mg, 5 mg once daily, Day 1", "value": 125, "unit": "mL/min"}, {"measurement": "clearance", "setting": "5 mg, 5 mg once daily, Day 10", "value": 101, "unit": "mL/min"}, {"measurement": "clearance", "setting": "5 mg, single dose 5 mg", "value": 114, "unit": "mL/min"}, {"measurement": "Cmax", "setting": "5 mg, 5 mg once daily, Day 1", "value": 76.2, "unit": "ng/mL"}, {"measurement": "Cmax", "setting": "5 mg, 5 mg once daily, Day 10", "value": 85.7, "unit": "ng/mL"}, {"measurement": "half-life", "setting": "5 mg, t1/2, 5 mg once daily, Day 1", "value": 6.4, "unit": "h"}, {"measurement": "half-life", "setting": "5 mg, t1/2, 5 mg once daily, Day 10", "value": 7.87, "unit": "h"}, {"measurement": "half-life", "setting": "5 mg, t1/2, single dose 5 mg", "value": 6.57, "unit": "h"}, {"measurement": "Tmax", "setting": "5 mg, 5 mg once daily, Day 1", "value": 2, "unit": "h"}, {"measurement": "Tmax", "setting": "5 mg, 5 mg once daily, Day 10", "value": 2, "unit": "h"}, {"measurement": "AUC(0-inf)", "setting": "10 mg", "value": 1610, "unit": "ng·h/mL"}, {"measurement": "concentration at 10 day", "setting": "10 mg", "value": 31.9, "unit": "ng/mL"}, {"measurement": "AUC(0-t)", "setting": "10 mg, 10 mg once daily, Day 1", "value": 1390, "unit": "ng·h/mL"}, {"measurement": "AUC(0-t)", "setting": "10 mg, single dose 10 mg", "value": 1440, "unit": "ng·h/mL"}, {"measurement": "AUC", "setting": "10 mg, 10 mg once daily, Day 1", "value": 1390, "unit": "ng·h/mL"}, {"measurement": "AUC", "setting": "[4]", "value": 2200, "unit": "ng·h/mL"}, {"measurement": "clearance", "setting": "10 mg, 10 mg once daily, Day 1", "value": 116, "unit": "mL/min"}, {"measurement": "clearance", "setting": "[4]", "value": 80.3, "unit": "mL/min"}, {"measurement": "clearance", "setting": "10 mg, single dose 10 mg", "value": 112, "unit": "mL/min"}, {"measurement": "Cmax", "setting": "10 mg, 10 mg once daily, Day 1", "value": 143, "unit": "ng/mL"}, {"measurement": "Cmax", "setting": "[4]", "value": 190, "unit": "ng/mL"}, {"measurement": "Cmax", "setting": "10 mg, single dose 10 mg", "value": 146, "unit": "ng/mL"}, {"measurement": "half-life", "setting": "10 mg, t1/2, 10 mg once daily, Day 1", "value": 7.12, "unit": "h"}, {"measurement": "half-life", "setting": "10 mg, t1/2, 10 mg once daily, Day 10", "value": 9.09, "unit": "h"}, {"measurement": "half-life", "setting": "10 mg, t1/2, single dose 10 mg", "value": 7.01, "unit": "h"}, {"measurement": "Tmax", "setting": "10 mg, 10 mg once daily, Day 1", "value": 2, "unit": "h"}, {"measurement": "Tmax", "setting": "[4]", "value": 2, "unit": "h"}, {"measurement": "Tmax", "setting": "10 mg, single dose 10 mg", "value": 3, "unit": "h"}, {"measurement": "AUC(0-inf)", "setting": "20 mg", "value": 4170, "unit": "ng·h/mL"}, {"measurement": "concentration at 10 day", "setting": "20 mg", "value": 69.2, "unit": "ng/mL"}, {"measurement": "AUC(0-t)", "setting": "20 mg, 20 mg once daily, Day 1", "value": 2980, "unit": "ng·h/mL"}, {"measurement": "AUC(0-t)", "setting": "20 mg, single dose 20 mg", "value": 4070, "unit": "ng·h/mL"}, {"measurement": "AUC", "setting": "20 mg, 20 mg once daily, Day 1", "value": 2980, "unit": "ng·h/mL"}, {"measurement": "AUC", "setting": "[5]", "value": 4650, "unit": "ng·h/mL"}, {"measurement": "clearance", "setting": "20 mg, 20 mg once daily, Day 1", "value": 100, "unit": "mL/min"}, {"measurement": "clearance", "setting": "[5]", "value": 72.2, "unit": "mL/min"}, {"measurement": "clearance", "setting": "20 mg, single dose 20 mg", "value": 81.2, "unit": "mL/min"}, {"measurement": "Cmax", "setting": "20 mg, 20 mg once daily, Day 1", "value": 290, "unit": "ng/mL"}, {"measurement": "Cmax", "setting": "[5]", "value": 396, "unit": "ng/mL"}, {"measurement": "Cmax", "setting": "20 mg, single dose 20 mg", "value": 308, "unit": "ng/mL"}, {"measurement": "half-life", "setting": "20 mg, t1/2, 20 mg once daily, Day 1", "value": 7.74, "unit": "h"}, {"measurement": "half-life", "setting": "20 mg, t1/2, 20 mg once daily, Day 10", "value": 10.2, "unit": "h"}, {"measurement": "half-life", "setting": "20 mg, t1/2, single dose 20 mg", "value": 8.7, "unit": "h"}, {"measurement": "Tmax", "setting": "20 mg, 20 mg once daily, Day 1", "value": 1.5, "unit": "h"}, {"measurement": "Tmax", "setting": "[5]", "value": 2, "unit": "h"}, {"measurement": "Tmax", "setting": "20 mg, single dose 20 mg", "value": 2, "unit": "h"}, {"measurement": "AUC(0-t)", "setting": "50 mg, 50 mg once daily, Day 1", "value": 7770, "unit": "ng·h/mL"}, {"measurement": "AUC", "setting": "50 mg, 50 mg once daily, Day 1", "value": 7770, "unit": "ng·h/mL"}, {"measurement": "clearance", "setting": "50 mg, 50 mg once daily, Day 1", "value": 94.7, "unit": "mL/min"}, {"measurement": "Cmax", "setting": "50 mg, 50 mg once daily, Day 1", "value": 667, "unit": "ng/mL"}, {"measurement": "half-life", "setting": "50 mg, t1/2, 50 mg once daily, Day 1", "value": 8.67, "unit": "h"}, {"measurement": "Tmax", "setting": "50 mg, 50 mg once daily, Day 1", "value": 2, "unit": "h"}, {"measurement": "time to steady state", "setting": "once-daily administration, visual inspection of Ctrough", "value": "5 to 6", "unit": "days"}, {"measurement": "V/F", "setting": "single dose 1.25 mg", "value": "87.8 (30.4) L"}, {"measurement": "V/F", "setting": "single dose 2.5 mg", "value": "79.0 (29.0) L"}, {"measurement": "V/F", "setting": "single dose 5 mg", "value": "64.6 (23.0) L"}, {"measurement": "V/F", "setting": "single dose 10 mg", "value": "66.9 (29.8) L"}, {"measurement": "V/F", "setting": "single dose 20 mg", "value": "61.3 (19.0) L"}, {"measurement": "V/F", "setting": "single dose 40 mg", "value": "73.2 (28.3) L"}, {"measurement": "V/F", "setting": "single dose 100 mg", "value": "57.0 (16.3) L"}, {"measurement": "decrease of exposure in the presence of food", "setting": "single oral 40 mg", "value": "~ 15%"}]}]}
